Data on 4 compounds can be found in patent US20250019386A1, “PYRROLO[1,2-b]-2-PYRIDAZINONE COMPOUNDS AS 5-HT4 RECEPTOR AGONISTS” (SUVEN LIFE SCIENCES LIMITED, priority 2022, published 2025).

Molecules are shown by their SMILES.

Series [1] can be described thus: Rat brain penetration study. Particulars: brain/plasma, oral (gavage) 3 mg/kg, male Wistar rats, brain concentrations below LLOQ taken as zero, read-out: Single dose Brain Penetration (Cb/Cp). Format: in vivo. As to the method: Male Wistar rats (225±25 g) were used as experimental animals. Three animals were housed in each cage. Animals were given water and food ad libitum throughout the experiment and maintained on a 12 h light/dark cycle.
Brain penetration was determined in discrete manner in rats. One day prior to dosing day, male Wistar rats were acclimatized. After acclimatization, the rats were grouped according to their weight. In each group, 3 animals were kept in individual cages and allowed free access to food and water. At each time point (0.5, 1, and 2 h) n=3 animals were used.
The compounds of formula (I) were suitably preformulated and administered orally at (free base equivalent) 3 mg/kg. Blood samples were collected via, cardiac puncture by using isoflurane anesthesia. The animals were sacrificed to collect brain tissue. Plasma was separated and brain samples were homogenized and stored frozen at −20° C. until analysis.
The concentrations of the compounds of formula (I) were quantified in plasma and brain homogenate by qualified LC-MS/MS method using a suitable extraction technique. The compounds of formula (I) were quantified in the calibration range of 1-2000 ng/mL in plasma and brain homogenate. Study samples were analyzed using calibration samples in the batch and quality control samples spread across the batch. Extent of brain-plasma ratio was calculated (Cb/Cp). Brain concentrations were found below LLOQ and a value of zero was considered for calculation purposes.

Series [2] can be described thus: Rat pharmacokinetic study. Type of series: in vivo. As to conditions: male Wistar rats, plasma; for bioavailability: oral 3 mg/kg vs intravenous 1 mg/kg. As to the method:
Male Wistar rats (250±50 g) were used as experimental animals. Animals were housed individually in polypropylene cages. Two days prior to study, rats were anesthetized with isoflurane for surgical placement of jugular vein catheter. Rats were randomly divided for oral (3 mg/kg and 10 mL/kg as dose volume) and intravenous (1 mg/kg and 2 mL/kg as dose volume) dosing (n=3/group) and fasted overnight before oral dosing (p.o.). However, rats allocated to intravenous dosing food and water was provided ad libitum.
Intravenous formulation was prepared by using water for injection as vehicle. For Oral, formulation was prepared by using reagent grade water as vehicle. The dose formulations were prepared freshly on the day of dosing.
After dosing of animal, each time point a 200 μL of blood sample was collected through jugular vein and replenished with an equivalent volume of normal saline. The collected blood sample was transferred into a labeled eppendorf tube containing 10 μL of sodium heparin (1000 IU/mL) as an anticoagulant. Typically blood samples were collected at following time points: 0.08, 0.25, 0.5, 1, 2, 4, 6, 8, and 24 h post dose. Blood was centrifuged at 4000 rpm for 10 min. Plasma was separated and stored frozen at −80° C. until analysis. The concentrations of the test compounds were quantified in plasma by qualified LC-MS/MS method using a suitable extraction technique. The test compounds were quantified in the calibration range around 1-2000 ng/mL in plasma. Study samples were analyzed using calibration samples in the batch and quality control samples spread across the batch.
Pharmacokinetic parameters Cmax, AUCt, t1/2 and bioavailability were calculated by non-compartmental model using standard non-compartmental model by using Phoenix WinNonlin 6.4 version Software.

Series [3] deals with T1, 5-HT4 receptors (Homo sapiens (Human), UniProt Q13639). Kind of series: Determination of EC50 values for 5-HT4 receptor (pCRE-Luc reporter assay). Particulars: CHO cells expressing recombinant human 5-HT4 receptor and pCRE-Luc reporter; 4 h incubation; luciferase activity. Format: cell-based. On the procedure: A stable CHO cell line expressing recombinant human 5-HT4 receptor and pCRE-Luc reporter system was used for cell-based assay. The assay offers a non-radioactive based approach to determine binding of a compound to GPCRs. In this specific assay, the level of intracellular cyclic AMP, which is modulated by activation, or inhibition of the receptor is measured. The recombinant cells harbor luciferase reporter gene under the control of cAMP response element.
The above cells were grown in 96 well clear bottom white plates in Ham's F12 medium containing 10% fetal bovine serum. Prior to the addition of compounds or standard agonist, cells were serum starved overnight. Increasing concentrations of test compounds were added to the cells in OptiMEM medium. The incubation was continued in CO2 incubator at 37° C. with 5% CO2 conditions for 4 h. Medium was removed and cells were washed with phosphate buffered saline. The cells were lysed and luciferase activity was measured in a Luminometer. Concentration-response data was generated using the luciferase assay, following incubation of cells with receptor ligands, were analyzed by subtracting basal levels (i.e. with medium alone), then normalizing values as a percentage of controls (endogenous agonist serotonin (10 μM)). […] EC50 values of the compounds were defined as the concentration required in stimulating the luciferase activity by 50%.

Series [4] addresses hERG potassium channels (Homo sapiens (Human), UniProt Q12809). Particulars: background statement; cited from earlier work.
Series [5] relates to gastric emptying. The series is described as follows: Effect on gastric emptying in Beagle dogs (clonidine model of gastroparesis). Type of series: in vivo. Particulars: 10 mg/kg oral, clonidine-treated beagle dogs. On the procedure: Six beagle dogs were used for the study in a crossover manner such that all 6 dogs received all the treatments. Each dog was placed in an individual cage after overnight fasting and water removed. To provide a model of gastroparesis, clonidine (α2 adrenergic agonist) at a dose of 10 μg/kg was injected subcutaneously 30 min before test meal administration.
Dogs were orally administered test compound of example 2 at 1, 3 and 10 mg/kg or vehicle or cisapride at 10 mg/kg immediately before the administration of clonidine. The test meal (10 mL/kg), made up of commercially available semi-solid food with 10 mg/kg of acetaminophen (APAP), was provided 30 min after clonidine injection. Blood samples were collected from cephalic vein at 0, 0.25, 0.5, 0.75, 1.0, 1.25, 1.5 & 2.0 h after test meal administration and then plasma was separated by centrifugation. Plasma concentrations of APAP were determined by in-house methods using LC-MS/MS.

Series [6] concerns the target T1, 5-HT4 receptors. Particulars: background statement; cited from earlier work.

T1 sequence (Q13639 whole entry): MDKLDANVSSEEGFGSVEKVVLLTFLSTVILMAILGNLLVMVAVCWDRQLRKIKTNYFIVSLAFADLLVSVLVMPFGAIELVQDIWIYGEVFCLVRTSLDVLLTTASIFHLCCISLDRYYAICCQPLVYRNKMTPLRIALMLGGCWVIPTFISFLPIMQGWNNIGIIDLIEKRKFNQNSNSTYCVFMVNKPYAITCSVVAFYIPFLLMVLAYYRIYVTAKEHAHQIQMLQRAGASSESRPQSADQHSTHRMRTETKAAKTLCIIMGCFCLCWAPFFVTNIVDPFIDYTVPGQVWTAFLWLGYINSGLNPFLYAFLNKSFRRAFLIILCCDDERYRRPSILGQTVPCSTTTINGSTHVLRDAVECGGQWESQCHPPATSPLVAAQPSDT
hERG potassium channels, sequence (Q12809 whole entry): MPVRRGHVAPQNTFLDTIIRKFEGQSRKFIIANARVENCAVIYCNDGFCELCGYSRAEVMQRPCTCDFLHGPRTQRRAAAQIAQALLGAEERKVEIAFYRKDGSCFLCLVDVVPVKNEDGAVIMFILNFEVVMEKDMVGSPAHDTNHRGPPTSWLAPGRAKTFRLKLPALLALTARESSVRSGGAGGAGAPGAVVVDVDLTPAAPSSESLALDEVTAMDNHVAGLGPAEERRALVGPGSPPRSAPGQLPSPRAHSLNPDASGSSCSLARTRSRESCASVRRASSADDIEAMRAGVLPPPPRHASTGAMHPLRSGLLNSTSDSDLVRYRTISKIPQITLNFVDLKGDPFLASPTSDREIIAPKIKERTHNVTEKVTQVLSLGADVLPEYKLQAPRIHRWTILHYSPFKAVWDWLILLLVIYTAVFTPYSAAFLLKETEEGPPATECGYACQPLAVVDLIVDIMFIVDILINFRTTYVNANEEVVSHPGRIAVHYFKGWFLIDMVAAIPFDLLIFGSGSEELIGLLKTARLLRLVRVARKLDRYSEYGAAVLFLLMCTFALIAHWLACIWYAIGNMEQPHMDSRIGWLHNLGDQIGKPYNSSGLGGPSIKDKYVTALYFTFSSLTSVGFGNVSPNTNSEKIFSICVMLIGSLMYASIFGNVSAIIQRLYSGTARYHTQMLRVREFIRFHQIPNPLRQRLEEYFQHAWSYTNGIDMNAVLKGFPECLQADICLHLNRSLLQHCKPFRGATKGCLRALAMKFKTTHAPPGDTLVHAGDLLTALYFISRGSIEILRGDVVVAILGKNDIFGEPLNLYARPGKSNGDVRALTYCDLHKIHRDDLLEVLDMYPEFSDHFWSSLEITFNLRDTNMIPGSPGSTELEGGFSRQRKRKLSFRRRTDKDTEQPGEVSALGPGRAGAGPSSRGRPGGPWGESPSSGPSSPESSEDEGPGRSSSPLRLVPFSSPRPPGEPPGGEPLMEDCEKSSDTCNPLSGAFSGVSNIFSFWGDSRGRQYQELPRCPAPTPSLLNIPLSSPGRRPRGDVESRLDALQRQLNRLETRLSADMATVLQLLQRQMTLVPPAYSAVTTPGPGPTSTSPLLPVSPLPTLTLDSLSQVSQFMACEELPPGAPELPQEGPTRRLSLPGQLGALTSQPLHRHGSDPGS

Usually AUC(0-t) stands for exposure summed from dosing to a finite time, without extrapolation to infinity. High values mean high exposure, low ones low exposure. As a reminder, the half-life is the time in which the quantity being followed falls by half. High values mean slow loss, low ones fast loss. A word on the Cmax: it is the maximum level reached in the sampled fluid or tissue. Usually bioavailability stands for the share of a dose that reaches the circulation, judged against a reference dose that is usually intravenous. Higher therefore signals good availability. Usually EC50 stands for the concentration at which the effect is half-maximal. In the case of `CC(C)n1c(=O)c(C(=O)NC2CC3CCC(C2)N3CCNS(C)(=O)=O)cc2cccn21.O=C(O)C(O)C(O)C(=O)O` [Example 28, N-{8-[2-Methanesulfonylaminoethyl]-8-azabicyclo[3.2.1]oct-3-yl} [1-isopropyl-2-oxo-1,2-dihydro pyrrolo[1,2-b]pyridazin]-3-carboxamide L-(+)-tartrate], the Kp in series [1] came out at 0. Moreover, in series [2] (intravenous (bolus), 1 mg/kg), the AUC(0-t) worked out at 146 ± 39 ng·h/mL and the half-life is 1.3 ± 0.2 h. In series [2] (oral (gavage), 3 mg/kg), this compound showed an AUC(0-t) of 189 ± 26 ng·h/mL and a Cmax of 83 ± 51 ng/mL. Further, the bioavailability in series [2] amounted to 43 ± 6%. Besides, the EC50 in series [3] was 12 nM.

With `COC(=O)NCCCN1C2CCC1CC(NC(=O)c1cc3cccn3n(C(C)C)c1=O)C2.O=C(O)C(O)C(O)C(=O)O` [Example 34, N-{8-[3-Carbomethoxyaminopropyl]-8-azabicyclo[3.2.1]oct-3-yl} [1-isopropyl-2-oxo-1,2-dihydro pyrrolo[1,2-b]pyridazin]-3-carboxamide L-(+)-tartrate], the Kp in series [1] was determined as 0. In series [2] (intravenous (bolus), 1 mg/kg), the AUC(0-t) turned out to be 119 ± 16 ng·h/mL and the half-life was 1.3 ± 0.3 h. In series [2] (oral (gavage), 3 mg/kg), this compound displayed an area under the curve AUC(0-t) of 274 ± 74 ng·h/mL and a Cmax of 174 ± 49 ng/mL. The same compound had a bioavailability in series [2] of 77 ± 21%. In series [3], the EC50 was 18 nM.

`COc1cc(N)c(Cl)cc1C(=O)NC1CCN(CCCOc2ccc(F)cc2)CC1OC` (stereo not shown) [cisapride]: the “interaction with hERG potassium channels” value in series [4] is given as “potent interaction”. For the same compound, the “speed of gastric emptying” value in series [5] is “restored speed of gastric emptying”. Further, the “selectivity for 5-HT4 receptors” value in series [6] is “poor selectivity”.

As for `[H]/N=C(/NCCCCC)N/N=C/c1c[nH]c2ccc(OC)cc12` [tegaserod], in series [4], the “interaction with hERG potassium channels” value is reported as “potent interaction”. Moreover, the “selectivity for 5-HT4 receptors” value in series [6] was “poor selectivity”.
